Laboratory results taken from patent publication US9896436B2, “Histone demethylase inhibitors” (Celgene Quanticel Research, Inc., priority 2014, dated 2018).

Assays:
Format in all cases: biochemical
Details in all cases: Table 5
[1] = biological target: JMJD3 (Homo sapiens, UniProt O15054); test: JMJD3 in vitro enzyme inhibition assay (AlphaScreen)
Description: (§1) This assay determines the ability of a test compound to inhibit Jarid1B, JMJD2C and JMJD3 demethylase activity. Baculovirus expressed Jarid1B (GenBank Accession #NM-006618, AA 2-751) was purchased from BPS Bioscience (Cat #50121) or custom made by MolecularThroughput. Baculovirus expressed JMJD2C (GenBank Accession #BC143571, AA 2-372) was purchased from BPS Bioscience (Cat#50105). Baculovirus expressed JMJD3 (GenBank Accession #NM-001080424, AA1043-end) was purchased from BPS Bioscience (Cat#50115).
The ability of test compounds to inhibit the activity of JMJD3 was determined in 384-well plate format under the following reaction conditions: 1 nM JMJD3, 250 nM H3K27me3-biotin labeled peptide (Anaspec cat #64367), 1 μM alpha-ketoglutaric acid in assay buffer of 50 mM HEPES, pH7.3, 0.005% Brij35, 0.5 mM TCEP, 0.2 mg/ml BSA, 50 μM sodium L-ascorbate, 5 μM ammonium iron(II) sulfate. Reaction product is determined quantitatively by AlphaScreen detection after the addition of detection reagents anti-H3K27me1 antibody, 5 μg/ml AlphaScreen® Streptavidin-coated Donor beads, and 5 μg/ml AlphaScreen® Protein A Acceptor beads in 50 mM HEPES, pH7.3, 10 mM NaCl, 0.005% Brij35, 10 mM EDTA, 2 mg/ml BSA. […]

[2] = biological target: Jarid1B (Homo sapiens (Human), UniProt Q9UGL1); test: Jarid1B in vitro enzyme inhibition assay (TR-FRET)
Jarid1B, sequence (Q9UGL1 2-751): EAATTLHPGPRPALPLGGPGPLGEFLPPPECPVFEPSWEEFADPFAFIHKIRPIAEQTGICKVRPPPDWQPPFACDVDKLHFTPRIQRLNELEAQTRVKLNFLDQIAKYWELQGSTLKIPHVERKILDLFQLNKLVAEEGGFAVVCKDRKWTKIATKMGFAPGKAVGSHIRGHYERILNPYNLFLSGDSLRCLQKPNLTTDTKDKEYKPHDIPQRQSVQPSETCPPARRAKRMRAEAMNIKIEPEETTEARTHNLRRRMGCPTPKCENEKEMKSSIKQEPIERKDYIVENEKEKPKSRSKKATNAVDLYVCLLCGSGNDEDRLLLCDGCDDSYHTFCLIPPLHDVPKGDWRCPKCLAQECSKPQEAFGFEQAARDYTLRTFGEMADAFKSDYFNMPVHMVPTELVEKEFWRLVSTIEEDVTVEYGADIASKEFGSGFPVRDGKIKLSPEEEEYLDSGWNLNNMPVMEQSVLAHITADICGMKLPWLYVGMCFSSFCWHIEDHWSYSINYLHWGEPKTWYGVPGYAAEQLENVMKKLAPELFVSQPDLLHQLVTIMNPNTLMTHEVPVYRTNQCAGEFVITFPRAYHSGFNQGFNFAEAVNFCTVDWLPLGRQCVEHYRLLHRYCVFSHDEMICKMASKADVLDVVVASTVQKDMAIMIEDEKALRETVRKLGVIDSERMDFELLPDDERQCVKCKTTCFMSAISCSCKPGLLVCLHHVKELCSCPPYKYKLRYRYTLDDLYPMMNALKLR
Description: as §1
The ability of test compounds to inhibit the activity of Jarid1B was determined in 384-well plate format under the following reaction conditions: 0.8 nM Jarid1B, 300 nM H3K4me3-biotin labeled peptide (Anaspec cat #64357), 2 μM alpha-ketoglutaric acid in assay buffer of 50 mM HEPES, pH7.3, 0.005% Brij35, 0.5 mM TCEP, 0.2 mg/ml BSA, 50 μM sodium L-ascorbate, and 2 μM ammonium iron(II) sulfate. Reaction product was determined quantitatively by TR-FRET after the addition of detection reagent Phycolink Streptavidin-allophycocyanin (Prozyme) and Europium-anti-mono- or di-methylated histone H3 lysine 4 (H3K4me1-2) antibody (PerkinElmer) in the presence of 5 mM EDTA in LANCE detection buffer (PerkinElmer) at a final concentration of 25 nM and 1 nM, respectively. […]

[3] = biological target: JMJD2C (Homo sapiens (Human), UniProt Q9H3R0); test: JMJD2C in vitro enzyme inhibition assay (TR-FRET)
JMJD2C, sequence (Q9H3R0 2-372): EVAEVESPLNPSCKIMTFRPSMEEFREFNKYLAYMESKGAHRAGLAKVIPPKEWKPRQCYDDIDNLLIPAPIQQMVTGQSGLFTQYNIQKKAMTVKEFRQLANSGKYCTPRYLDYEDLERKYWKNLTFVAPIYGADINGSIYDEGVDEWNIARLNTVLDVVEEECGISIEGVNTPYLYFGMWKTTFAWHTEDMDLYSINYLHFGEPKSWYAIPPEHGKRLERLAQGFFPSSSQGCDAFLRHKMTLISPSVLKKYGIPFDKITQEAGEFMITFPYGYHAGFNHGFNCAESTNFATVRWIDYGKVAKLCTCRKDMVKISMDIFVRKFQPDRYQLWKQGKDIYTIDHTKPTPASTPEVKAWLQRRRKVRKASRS
Description: as §1
The ability of test compounds to inhibit the activity of JMJD2C was determined in 384-well plate format under the following reaction conditions: 0.3 nM JMJD2C, 300 nM H3K9me3-biotin labeled peptide (Anaspec cat #64360), 2 μM alpha-ketoglutaric acid in assay buffer of 50 mM HEPES, pH7.3, 0.005% Brij35, 0.5 mM TCEP, 0.2 mg/ml BSA, 50 μM sodium L-ascorbate, and 2 μM ammonium iron(II) sulfate. Reaction product was determined quantitatively by TR-FRET after the addition of detection reagent Phycolink Streptavidin-allophycocyanin (Prozyme) and Europium-anti-di-methylated histone H3 lysine 9 (H3K9me2) antibody (PerkinElmer) in the presence of 5 mM EDTA in LANCE detection buffer (PerkinElmer) at a final concentration of 50 nM and 1 nM, respectively. […]

For “2-{1-[(6-fluoro-1,2,3,4- tetrahydronaphthalen-1-yl)methyl]-1H- imidazol-4-yl}-4-[5-(trifluoromethyl)-1H 1,2,3-triazol-4-yl]pyridine [Example 100]”, the IC50 [1] was > 10 µM, the IC50 [2] was ≤ 0.1 µM and the IC50 [3] was > 10 µM.
